Measurements: patent US10449208B2, “Antiviral prodrugs of tenofovir” (Merck Sharp & Dohme Corp., priority 2016, dated 2019)
Like-named read-outs stand apart in the source and are kept apart here.

Tests used:
[1] = Prodrug stability assay in bio-relevant media (FaSSIF with Pancreatin, simulated gastrointestinal tract conditions); assay type: in vitro ADME; details: % parent prodrug remaining at 5 h vs 0 h, 37° C., 0.5 mg/mL Pancreatin in FaSSIF, HPLC area ratio
Description: Prodrug Stability Assay in Bio-Relevant Media
The following assay was employed to evaluate the stability of the prodrugs in simulated gastrointestinal tract conditions. Preparation of fasted state simulated intestinal fluid (FaSSIF) using Phares SIF Powder was carried out according to protocols from Phare Drug Delivery AG (Baselland, Switzerland). For sample preparation, 10 μL stock solutions (10 mM) of prodrug substance in DMSO was added to 990 μL of 0.5 mg/mL Pancreatin solution (Fisher CAS#8049-47-6) in FaSSIF. Two samples were prepared for each compound at initial. If the sample was clear solution at the beginning, ran one sample directly as initial by HPLC; if the sample was not clear at starting, diluted the sample by 100% ACN. Put the other sample under 37° C. and observed the sample at 5 h time-point. At 5 h time point, if the sample was clear solution then performed HPLC analysis directly; if it was not clear solution, diluted the sample by 100% ACN and assayed by HPLC. All the samples were vortexed for 3 min and observed before injection. For the diluted samples, the area will be multiplied by a factor when data analysis. The analysis was carried out with an Agilent 1100 series HPLC with autosampler. The column was usually a Poroshell 120 EC -C18, 4.6×50 mm, 2.7 μm. The flow rate was 1.8 mL/min, and the injection volume was 5 or 10 μL. UV detection was in the range 210-400 nm. The mobile phase consisted of solvent A (water plus 10 mM tetrabutylammonium bromide) and solvent B (acetonitrile) with a gradient of 90% solvent A at 0 min changing to 95% solvent B over 6 min, maintained for 1.5 min, then reverting to 90% solvent A over 1.6 min. The area of the parent in prodrug at 5h time point was divided by the area of the parent in prodrug at 0 h time point, to generate the % claimed parent ratio, which are summarized in Table 2 for GI Tract stability.

[2] = tested on: HIV-1 (H9/IIIB strain); experiment: Multiple round HIV-1 infection assay (Viking assay) in MT4-GFP cells; assay type: cell-based; details: MT4-GFP cells infected with HIV-1 H9/IIIB, inhibition of reproductive ratio R0
Description: Assessing Antiviral Potency in a Multiple Round HIV-1 Infection Assay (Viking Assay)
The antiviral activity of the tenofovir prodrugs of the Examples herein was assessed in an assay that measures the rate of replication of HIV in cell culture, termed the Viking assay (Viral KINetics in Green cells) and performed as follows. HIV-1 replication was monitored using MT4-gag-GFP clone D3 (hereafter designated MT4-GFP), which are MT-4 cells modified to harbor a GFP reporter gene, the expression of which is dependent on the HIV-1 expressed proteins tat and rev. Productive infection of an MT4-GFP cell with HIV-1 results in GFP expression approximately 24 h post-infection. MT4-GFP cells were maintained at 37° C./5% CO2/90% relative humidity in RPMI 1640 supplemented with 10% fetal bovine serum, 100 μ/ml penicillin/streptomycin, and 400 μg/ml G418 to maintain the reporter gene. For infections, MT4-GFP cells were placed in the same medium lacking G418 and infected overnight with HIV-1 (H9/IIIB strain) virus at an approximate multiplicity of infection of 0.01 in the same incubation conditions. Cells were then washed and re-suspended in either RPMI 1640 supplemented with 10% or 50% normal human serum (NFIS) at 1.6×10^5 cells/mL (10% NHS or 50% NHS, respectively). Compound plates were prepared by dispensing compounds dissolved in DMSO into wells of 384 well poly-D -lysine-coated plates (0.2 μl/well) using an ECHO acoustic dispenser. Each compound was tested in a 10-point serial 3-fold dilution (typical final concentrations: 8.4 μM-0.42 nM). Controls included no inhibitor (DMSO only) and a combination of three antiviral agents (efavirenz, indinavir, an in-house integrase strand transfer inhibitor at final concentrations of 4 μM each). Cells were added (50 μL/well) to compound plates and the infected cells were maintained at 37° C./5% CO2/90% relative humidity.
infected cells were quantified at two time points, ˜48 h and ˜72 h post -infection, by counting the number of green cells in each well using an Acumen eX3 scanner. The increase in the number of green cells over ˜24 h period gives the reproductive ratio, R0, which is typically 5-15 and has been shown experimentally to be in logarithmic phase (data not shown). Inhibition of R0 is calculated for each well, and IC50s determined by non-linear 4-parameter curve fitting.

[3] = 10% normal human serum, read-out: Viking, IC50 (10% NHS)
[4] = 50% normal human serum, read-out: Viking, IC50 (50% NHS)
[5] = Human immunodeficiency virus 1, IIIB, 10% normal human serum, read-out: Viking, IC50 (10% NHS)
[6] = Human immunodeficiency virus 1, IIIB, 50% normal human serum, read-out: Viking, IC50 (50% NHS)

SMILES | GI Tract stability [1] [%] | IC50 [2, 3] [nM] | IC50 [2, 4] [nM] | IC50 [2, 5] [nM] | IC50 [2, 6] [nM]
CC(C)OC(=O)[C@H](C)OP(=O)(CO[C@H](C)Cn1cnc2c(N)ncnc21)NC(C)(C)C(=O)OC1CCCC1 (single isomer, unassigned) [Example 18B] | 91.31 | 2.69 | 8.77 |  | 
CCCCCOC(=O)C(C)(C)NP(=O)(CO[C@H](C)Cn1cnc2c(N)ncnc21)O[C@@H](C)C(=O)OC1CCCC1 (single isomer, unassigned) [Example 19B] | 100.00 | 3.01 | 9.93 |  | 
CC(C)OC(=O)[C@@H](C)OP(=O)(CO[C@H](C)Cn1cnc2c(N)ncnc21)NC(C)(C)C(=O)OC(C)C (stereo partly drawn) [Example 20, Isopropyl 2-((((((R)-1-(6-amino-9H-purin-9-yl)propan-2-yl)oxy)methyl)(((R)-1-isopropoxy-1-oxopropan-2-yl)oxy)phosphoryl)amino)-2-methylpropanoate] | 7.19 |  |  | 21 | 97
CCCOC(=O)C(C)(C)NP(=O)(CO[C@H](C)Cn1cnc2c(N)ncnc21)OCC(=O)OC(C)C (stereo partly drawn) [Example 21, Propyl 2-((((((R)-1-(6-amino-9H-purin-9-yl)propan-2-yl)oxy)methyl)(2-isopropoxy-2-oxoethoxy)phosphoryl)amino)-2-methylpropanoate] | 99.36 |  |  | 6.15 | 12
CCCOC(=O)C(C)(C)NP(=O)(CO[C@H](C)Cn1cnc2c(N)ncnc21)O[C@@H](C)C(=O)OC(C)C (stereo partly drawn) [Example 22, Propyl 2-((((((R)-1-(6-amino-9H-purin-9-yl)propan-2-yl)oxy)methyl)(((S)-1-isopropoxy-1-oxopropan-2-yl)oxy)phosphoryl)amino)-2-methylpropanoate] | 79.24 |  |  | 4.65 | 17.7
CCCOC(=O)C(C)(C)NP(=O)(CO[C@H](C)Cn1cnc2c(N)ncnc21)O[C@H](C)C(=O)OC(C)C (stereo partly drawn) [Example 23, Propyl 2-((((((R)-1-(6-amino-9H-purin-9-yl)propan-2-yl)oxy)methyl)(((R)-1-isopropoxy-1-oxopropan-2-yl)oxy)phosphoryl)amino)-2-methylpropanoate] | 4.28 |  |  | 2.67 | 8.19
CCCCOC(=O)C(C)(C)NP(=O)(CO[C@H](C)Cn1cnc2c(N)ncnc21)OCC(=O)OC(C)C (stereo partly drawn) [Example 24, Butyl 2-((((((R)-1-(6-amino-9H-purin-9-yl)propan-2-yl)oxy)methyl)(2-isopropoxy-2-oxoethoxy)phosphoryl)amino)-2-methylpropanoate] | 98.30 |  |  | 4.78 | 27.8
CCCCOC(=O)C(C)(C)NP(=O)(CO[C@H](C)Cn1cnc2c(N)ncnc21)O[C@@H](C)C(=O)OC(C)C (stereo partly drawn) [Example 25, Butyl 2-((((((R)-1-(6-amino-9H-purin-9-yl)propan-2-yl)oxy)methyl)(((S)-1-isopropoxy-1-oxopropan-2-yl)oxy)phosphoryl)amino)-2-methylpropanoate] | 79.61 |  |  | 2.44 | 10.5
CCCCOC(=O)C(C)(C)NP(=O)(CO[C@H](C)Cn1cnc2c(N)ncnc21)O[C@H](C)C(=O)OC(C)C (stereo partly drawn) [Example 26, Butyl 2-((((((R)-1-(6-amino-9H-purin-9-yl)propan-2-yl)oxy)methyl)(((R)-1-isopropoxy-1-oxopropan-2-yl)oxy)phosphoryl)amino)-2-methylpropanoate] | 9.01 |  |  | 3.1 | 8.74
CC(C)COC(=O)C(C)(C)NP(=O)(CO[C@H](C)Cn1cnc2c(N)ncnc21)O[C@@H](C)C(=O)OC(C)C (stereo partly drawn) [Example 31, Isobutyl 2-((((((R)-1-(6-amino-9H-purin-9-yl)propan-2-yl)oxy)methyl)(((S)-1-isopropoxy-1-oxopropan-2-yl)oxy)phosphoryl)amino)-2-methylpropanoate] | 85.48 |  |  | 2.39 | 7.57
CCCCCCOC(=O)C(C)(C)NP(=O)(CO[C@H](C)Cn1cnc2c(N)ncnc21)O[C@@H](Cc1ccccc1)C(=O)OC(C)C (stereo partly drawn) [Example 33, Hexyl 2-((((((R)-1-(6-amino-9H-purin-9-yl)propan-2-yl)oxy)methyl)(((S)-1-isopropoxy-1-oxo-3-phenylpropan-2-yl)oxy)phosphoryl)amino)-2-methylpropanoate] | 26.96 |  |  | 1.69 | 5.06
CCCCCOC(=O)C(C)(C)NP(=O)(CO[C@H](C)Cn1cnc2c(N)ncnc21)OCC(=O)OC1CCCC1 (stereo partly drawn) [Example 36, Pentyl 2-((((((R)-1-(6-amino-9H-purin-9-yl)propan-2-yl)oxy)methyl)(2-(cyclopentyloxy)-2-oxoethoxy)phosphoryl)amino)-2-methylpropanoate] | 88.87 |  |  | 2.39 | 6.04
CCCOC(=O)C(C)(C)NP(=O)(CO[C@H](C)Cn1cnc2c(N)ncnc21)OCC(=O)OC1CCCC1 (stereo partly drawn) [Example 38, Propyl 2-((((((R)-1-(6-amino-9H-purin-9-yl)propan-2-yl)oxy)methyl)(2-(cyclopentyloxy)-2-oxoethoxy)phosphoryl)amino)-2-methylpropanoate] | 96.64 |  |  | 2.68 | 6.26
CC(C)OC(=O)[C@H](C)OP(=O)(CO[C@H](C)Cn1cnc2c(N)ncnc21)NC(C)(C)C(=O)OCc1ccccc1 (stereo partly drawn) [Example 41, Benzyl 2-((((((R)-1-(6-amino-9H-purin-9-yl)propan-2-yl)oxy)methyl)(((S)-1-isopropoxy-1-oxopropan-2-yl)oxy)phosphoryl)amino)-2-methylpropanoate] | 58.50 |  |  | 2.87 | 12.5
CC(C)OC(=O)COP(=O)(CO[C@H](C)Cn1cnc2c(N)ncnc21)NC1(C(=O)OC(C)C)CCCC1 (stereo partly drawn) [Example 45, Isopropyl 1-((((((R)-1-(6-amino-9H-purin-9-yl)propan-2-yl)oxy)methyl)(2-isopropoxy-2-oxoethoxy)phosphoryl)amino) cyclopentane-1-carboxylate] | 99.44 |  |  | 15.6 | 62.6
CC(C)OC(=O)COP(=O)(CO[C@H](C)Cn1cnc2c(N)ncnc21)NC1(C(=O)OC(C)C)CC1 (stereo partly drawn) [Example 46, Isopropyl 1-((((((R)-1-(6-amino-9H-purin-9-yl)propan-2-yl)oxy)methyl)(2-isopropoxy-2-oxoethoxy)phosphoryl)amino) cyclopropane-1-carboxylate] | 98.18 |  |  | 386 | 703
